Laboratory results as given in US20210308077A1, “COMBINATIONS INCLUDING BETA-ADRENORECEPTOR AGONISTS FOR TREATMENT OF PARKINSON`S DISEASE AND MOVEMENT DISORDERS” (The Brigham and Women`s Hospital, Inc., priority 2017, published 2021).

System: α-synuclein protein and SNCA mRNA
Test: SNCA expression in SNCA-triplication iPSC-derived neuronal progenitor cells
Format: cell-based, human
Conditions: SNCA-triplication NPCs, 20 μM
Description: The derivation and culture of the WIBR-IPS-αSyn^TRPLline has been described previously (27).
To initiate differentiation, iPSC colonies were pretreated for 30-60 min with 5 μM Y-27632, a ROCK inhibitor (Calbiochem). They were single cell-dissociated after 5-10 minute exposure to accutase (StemProAccutase; Life Technologies) and then re-suspended in neural base (NB) medium, which is DMEM/F12 (Gibco/Life Technologies) supplemented with 0.5% N2 and 1% B27 (Life Technologies). […]
Total RNA from flash-frozen mice brain tissue, rodent primary cells, human neuroblastoma cells and iPSC-derived neuronal cells was isolated using TRIzol® (Life Technologies) following the manufacturer's protocol. RNA concentration was measured using NanoDrop spectrophotometer (Thermo Fisher Scientific, Wilmington, De.). […] Quantitative PCR was performed using TaqMan Universal PCR Master Mix (Applied Biosystems) on an ABI 7900HT instrument (Applied Biosystems) as described previously (31). […] Expression values were analyzed using the comparative threshold cycle method (31). […]

Question: Which “SNCA mRNA expression” value (3 days, P<0.005) does the source give for `CC(C)(C)NCC(O)c1cc(Cl)c(N)c(Cl)c1` (centres unmarked) [clenbuterol] here?
Answer: Its value is “significantly reduced”.

Question: And the “endogenous α-synuclein protein” value (4 days, P<0.05)?
Answer: The value was “significantly reduced”.
